Reference: paper PMC6838876 (Heliyon, 2019)
Marks after values point to notes of the source that are not given here.

Key:
[1] = Urinary excretion rate after oral gavage to non-fasted rats (HPLC of urine, free and conjugated forms); type: in vivo, Male Wistar rats; conditions: 40 mg/kg BW gavage; for Total urinary excretion rate at 48 h: all free and conjugated HAs
Method: The urine samples were stored at -80 °C until analysis. The rats were fed the AIN-93M diet throughout the experiment. This study was approved by the Animal Care Committee of Kindai University (permit number KABT-24-002), and the animals were maintained in accordance with the guidelines. Sample size, dose, and duration of urine collection were determined on the basis of our preliminary experiments.
The HA composition in urine was determined by the method described by Zhao et al. with a modification. […] The urine sample (20 μL) was added to 360 μL of acetic acid buffer (pH 5.0) containing 10 μg/mL sinapinic acid (internal standard) and 20 μL of acetic acid buffer (pH 5.0). The mixed solution was filtered through a 0.20 μm disposable syringe filter unit. The filtrate was analyzed by HPLC to quantify free forms of the HAs. Enzymatic hydrolysis was used to determine conjugated forms (glucuronidated and/or sulfated forms). The urine sample (20 μL) was added to 360 μL of acetic acid buffer (pH 5.0) containing 10 μg/mL sinapinic acid (internal standard) and 20 μL of β-glucuronidase type H-2 (containing both β-glucuronidase and sulfatase activity). […] The mixture was saturated with nitrogen gas and incubated at 37 °C for 2 h, followed by filtration through a 0.20 μm disposable syringe filter unit. The filtrate was analyzed by HPLC and the total amount of HAs (free forms and conjugated forms) was quantified. The conjugated HA levels were calculated by subtracting the amount of HA free forms from the total amount of HAs. […] The separation was performed using a 0.1% (v/v) trifluoroacetic acid–methanol solution (75:25, v/v) as the mobile phase at a flow rate of 1.0 mL/min at 40 °C. The injection volume was 10 μL. p-Coumaric acid was detected at 309 nm and the other HAs as well as sinapinic acid were detected at 325 nm based on the maximum absorbance. The urinary excretion rate was calculated as the percentage of the dose (mol/mol).

[2] = parameters: method as in PMID 16608213; conditions: fasted rats, cited from earlier work
[3] = parameters: method as in PMID 12097677, PMID 12730422; conditions: cited from earlier work
[4] = rats fed supplemented diet; cited from earlier work

O=C(O)/C=C/c1ccc(O)c(O)c1 [Caffeic acid, caffeic acid]
Caffeic acid urinary excretion rate ([1]; urine 0-6 h): 7.1 % of the dose

O=C(O)/C=C/c1ccc(O)cc1 [p-Coumaric acid, p-coumaric acid]
p-Coumaric acid urinary excretion rate ([1]; urine 0-6 h): 14.2 % of the dose
Ingested p-coumaric acid found in the urine as an intact form ([2]; gavage): 23%
Time after gavage within which the majority of p-coumaric acid was detected in urine [2]: ≤ 4 h

COc1cc(/C=C/C(=O)O)ccc1O [Ferulic acid, ferulic acid]
Ingested ferulic acid recovered as conjugated forms in the urine [3]: 50–70%
Total urinary excretion rate at 48 h ([1]; mean ± SE n = 4, 40 mg/kg): 73.2 ± 2.1 % of the dose
Total urinary excretion rate at 48 h ([1]; mean ± SE n = 4, listed as ferulic acid, 40 mg/kg): 73.2 % of the dose
Ferulic acid excreted in the urine at 48 h ([1]; urine 0-48 h, free form, mean ± SE n = 4): 3.01 ± 0.38^a % of the dose
Ferulic acid conjugates excreted in the urine at 48 h ([1]; urine 0-48 h, mean ± SE n = 4): 70.2 ± 6.8^b % of the dose
Ferulic acid conjugates urinary excretion rate ([1]; urine 0-6 h): 64.1 % of the dose
Ferulic acid urinary excretion rate ([1]; urine 0-6 h): 3.0 % of the dose
Percentage of conjugates in the total urinary excretion ([1]; urine at 48 h): 96%

O=C(/C=C/c1ccc(O)c(O)c1)O[C@@H]1C[C@](O)(C(=O)O)C[C@@H](O)[C@H]1O [Chlorogenic acid, chlorogenic acid]
Urinary excretion of chlorogenic acid or the total amount of caffeic, ferulic, and isoferulic acids [4]: less than 1 % of the chlorogenic acid intake
Chlorogenic acid excreted in the urine at 48 h ([1]; urine 0-48 h, free form, mean ± SE n = 4, 40 mg/kg): 0.04 ± 0.005^a % of the dose
Chlorogenic acid excreted in the urine at 48 h ([1]; urine 0-48 h, free form, mean ± SE n = 4, listed as chlorogenic acid, 40 mg/kg): 0.04 % of the dose
